One may read the IC50 as the point on the concentration scale where inhibition reaches its midpoint. Low readings indicate inhibition by little substance, high ones a need for much substance. As a reminder, the Ki is a measure of affinity in units of concentration, obtained from inhibition or displacement. A lower Ki goes with a stronger hold on the target. The term Vmax denotes the rate approached at saturating substrate.

From publication PMC8861568, “Identification of (Z)-2-benzylidene-dihydroimidazothiazolone derivatives as tyrosinase inhibitors: Anti-melanogenic effects and in silico studies” (Computational and Structural Biotechnology Journal, 2022) come the findings set out here.

Assay [1] concerns mushroom tyrosinase (mTYR). Briefly: Mushroom tyrosinase inhibition assay. The format is biochemical, Agaricus bisporus. The settings on record: for IC50: mushroom tyrosinase, L-tyrosine substrate. The procedure:
The tyrosinase inhibitory activity assays on the synthesized DHIT derivatives 1a – 1 k was performed using mushroom tyrosinase (mTYR), as previously described with minor modification. […] The optical densities of dopachrome produced during incubation were measured using a microplate reader (VersaMax™, Molecular Devices, Sunnyvale, CA, USA) at 492 nm. […] All experiments were conducted in triplicate. To calculate the tyrosinase inhibitory activities, the following formula was used: % inhibition = [(1− (A/B)) × 100], where A is test sample optical density and B is the optical density of the non-treated control.
IC50 values were calculated by plotting linear regression curves of percentage inhibitions versus derivative concentrations. The negative control was obtained by adding dimethyl sulfoxide (DMSO) instead of a DHIT derivative.

Assay [2] concerns the target mushroom tyrosinase (mTYR) (Agaricus bisporus, UniProt C7FF04). Briefly: Kinetics of mTYR inhibition (Lineweaver-Burk plots). The format is biochemical. The settings on record: for mode of mTYR inhibition: Lineweaver-Burk plots, L-tyrosine; for Vmax: independent of inhibitor concentration. The procedure:
Lineweaver-Burk double reciprocal plots were used to determine their inhibitory modes of action. Kinetic analyses were carried out using four concentrations of DHIT derivatives 1b (0, 0.0625, 0.125, or 0.25 μM) and 1f (0, 1, 2, or 4 μM) in the presence of different concentrations of L-tyrosine (0.5, 1, 2, 4, 8, or 16 mM for 1b and 1, 2, 4, or 8 mM for 1f). Lineweaver-Burk double reciprocal plots produced four different lines with different slopes, corresponding to the four concentrations, for each derivative. […] KM values were 1.515, 7.846, 15.740, and 23.586 mM at […], and 3.758, 4.892, 5.206, and 8.127 mM at 0, 1, 2, and 4 μM of 1f, respectively. […] The binding abilities of compounds 1b and 1f to the active site of tyrosinase were also supported by in silico docking simulation results (Figs. 5 and 6).
Lineweaver-Burk plots were used to determine modes of mTYR inhibition. Compounds 1b or 1f (10 μL, final concentrations: 0, 0.0625, 0.125, or 0.25 μM for 1b and 0, 1, 2 or 4 μM for 1f) and mTYR solution (20 μL, 150 units) were added to a 96-well plate containing 170 μL of a mixture containing aqueous L-tyrosine solution at final concentrations of 0.5, 1.0, 2.0, 4.0, 8.0, or 16 mM for 1b or 1.0, 2.0, 4.0, or 8.0 mM for 1f; aqueous L-tyrosine solution, distilled water, and 50 mM potassium phosphate buffer (pH 6.5) in the ratio 10:9:10. Initial rates of dopachrome formations in reaction mixtures were calculated by measuring increases in optical density at 492 nm (ΔOD492/min) using a microplate reader (VersaMax^TM, Molecular Devices, Sunnyvale, CA, USA). Maximum velocities of tyrosinase-L-tyrosine reactions were determined using Lineweaver-Burk plots (inverse of reaction velocity (1/V) versus the inverse of L-tyrosine concentration (1/[S])) obtained using 4 – 5 different concentrations of L-tyrosine. Modes of tyrosinase inhibition were determined using convergence points of plots.

“Also recorded” adds a separate entry of the source.

Chain of mushroom tyrosinase (mTYR) (Agaricus bisporus, UniProt C7FF04) (C7FF04 1-392): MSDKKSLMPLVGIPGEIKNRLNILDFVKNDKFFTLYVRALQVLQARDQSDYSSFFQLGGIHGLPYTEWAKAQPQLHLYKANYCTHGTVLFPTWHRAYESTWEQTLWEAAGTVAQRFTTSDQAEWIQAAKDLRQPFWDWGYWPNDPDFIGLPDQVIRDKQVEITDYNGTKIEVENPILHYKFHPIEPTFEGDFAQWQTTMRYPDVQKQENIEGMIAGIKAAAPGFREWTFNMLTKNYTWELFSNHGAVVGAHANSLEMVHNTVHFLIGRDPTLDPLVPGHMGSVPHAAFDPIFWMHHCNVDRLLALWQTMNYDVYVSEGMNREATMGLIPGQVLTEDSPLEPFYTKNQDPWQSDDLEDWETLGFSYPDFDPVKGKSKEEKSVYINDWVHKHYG

Take `COc1ccc(/C=c2\sc3n(c2=O)CCN=3)cc1O` [Compound 1f, (Z)-2-(3-Hydroxy-4-methoxybenzylidene)-5,6-dihydroimidazo[2,1-b]thiazol-3(2H)-one]: the “mushroom tyrosinase inhibition compared with kojic acid” value in assay [1] is recorded as “inhibited mTYR more than kojic acid”. Moreover, in assay [1], the IC50 was 17100 ± 1010 nM. The “fold stronger tyrosinase inhibitor than kojic acid” value in assay [1] (ratio of IC50 values) came out at 4.9 fold. The “mode of mTYR inhibition” value in assay [2] is “competitive inhibitors; also recorded: competitively inhibited”. In addition, the Ki in assay [2] (at 1 μM of 1f) turned out to be 3310 nM; in assay [2] (at 2 μM of 1f), 5190 nM; in assay [2] (at 4 μM of 1f), 3440 nM. Besides, the Vmax in assay [2] stood at 0.0103 mM/min.

As for `O=c1/c(=C/c2ccc(O)cc2O)sc2n1CCN=2` [Compound 1b, (Z)-2-(2,4-Dihydroxybenzylidene)-5,6-dihydroimidazo[2,1-b]thiazol-3(2H)-one], in assay [1], the “mushroom tyrosinase inhibition compared with kojic acid” value is “inhibited mTYR more than kojic acid” and it took 880 ± 910 nM to reach half-maximal inhibition (IC50). Besides, in assay [1] (ratio of IC50 values), the “fold more potent tyrosinase inhibition than MHY773” value is listed as about 3.3 fold. Further, in assay [2], the “mode of mTYR inhibition” value is “competitive inhibitors; also recorded: competitively inhibited” and the Vmax is listed as 0.0126 mM/min. In assay [2] (at 0.0625 μM of 1b), this compound had a Ki of 15 nM. Further, the Ki in assay [2] (at 0.125 μM of 1b) worked out at 13.3 nM. In assay [2] (at 0.25 μM of 1b), this compound displayed an inhibition constant Ki of 17.2 nM.
